Measurements: patent publication US9995734B2, “Human T cell line assay for evaluating the immunologic identity of glatiramer acetate preparations” (Mylan Inc., priority 2013, dated 2018)

Tests used:
[1] = tested on: Donor 3 COP T-Cell Lines; assay: ATP proliferation assay (CellTiter Glo), Donor 3 COP T-cell lines, incl. reactivity to non-canonical GA peptides; format: cell-based, human; conditions: for Reactivity (proliferation), Mean: Day 54 of culture; for Proliferation (luminescent ATP assay), Mean: Day 77 of culture, 0 μg/mL 1563
[2] = tested on: Donor 4 COP T-Cell Lines; assay: ATP proliferation assay (CellTiter Glo), Donor 4 COP T-cell lines, incl. reactivity to non-canonical GA peptides; format: cell-based, human; conditions: for luminescent ATP proliferation assay, Mean RLU: 205-1H7; for luminescent ATP proliferation assay, Mean RLU / Mean RLU: Day 59, 4 days incubation; for Mean, ATP proliferation assay: Cell Line 205-1F4; for Mean RLU: T-Cell Line 205-1H11

## glatiramer acetate [COP]
[1]; T-cell line 165-C4C, 10 μg/mL, Day 39
  Mean, ATP proliferation assay: 28262
[1]; T-cell line 165-C7C, 1 μg/mL, Day 39
  Mean, ATP proliferation assay: 3670
[1]; T-cell line 165-C7C, 3 μg/mL, Day 39
  Mean, ATP proliferation assay: 16527
[1]; T-cell line 165-C7C, 10 μg/mL, Day 39
  Mean, ATP proliferation assay: 40194
[1]; T-cell line 165-D2C, 1 μg/mL, Day 39
  Mean, ATP proliferation assay: 3955
[1]; T-cell line 165-D2C, 3 μg/mL, Day 39
  Mean, ATP proliferation assay: 7378
[1]; T-cell line 165-D2C, 10 μg/mL, Day 39
  Mean, ATP proliferation assay: 14239
[1]; T-cell line 165-D3C, 1 μg/mL antigen, No Antigen 8319
  Reactivity (proliferation), Mean: 22689 RLU
[1]; T-cell line 165-D3C, 1 μg/mL, Day 46, after 3 days
  Mean, ATP proliferation assay: 1248 RLU
[1]; T-cell line 165-D3C, 3 μg/mL antigen, No Antigen 8319
  Reactivity (proliferation), Mean: 50369 RLU
[1]; T-cell line 165-D3C, 3 μg/mL, Day 46, after 3 days
  Mean, ATP proliferation assay: 79792 RLU
[1]; T-cell line 165-D3C, 10 μg/mL antigen, No Antigen 8319
  Reactivity (proliferation), Mean: 52151 RLU
[1]; T-cell line 165-D3C, 10 μg/mL, Day 46, after 3 days
  Mean, ATP proliferation assay: 86270 RLU
[1]; T-cell line 165-D3C, 100 μg/mL antigen, No Antigen 8319
  Reactivity (proliferation), Mean: 10140 RLU
[1]; T-cell line 165-D3C, Day 32, 10 μg/mL
  Mean, ATP proliferation assay: 3362 RLU
[1]; T-cell line 165-D11C, 1 μg/mL antigen, No Antigen 4571
  Reactivity (proliferation), Mean: 3410 RLU
[1]; T-cell line 165-D11C, 1 μg/mL, Day 46, after 3 days
  Mean, ATP proliferation assay: 486 RLU
[1]; T-cell line 165-D11C, 3 μg/mL antigen, No Antigen 4571
  Reactivity (proliferation), Mean: 6618 RLU
[1]; T-cell line 165-D11C, 3 μg/mL, Day 46, after 3 days
  Mean, ATP proliferation assay: 19410 RLU
[1]; T-cell line 165-D11C, 10 μg/mL antigen, No Antigen 4571
  Reactivity (proliferation), Mean: 15652 RLU
[1]; T-cell line 165-D11C, 10 μg/mL, Day 46, after 3 days
  Mean, ATP proliferation assay: 42017 RLU
[1]; T-cell line 165-D11C, 100 μg/mL antigen, No Antigen 4571
  Reactivity (proliferation), Mean: 12958 RLU
[1]; T-cell line 165-D11C, Day 32, 10 μg/mL
  Mean, ATP proliferation assay: 525 RLU
[1]; T-cell line 165-E3C, 1 μg/mL antigen, No Antigen 2797
  Reactivity (proliferation), Mean: 2592 RLU
[1]; T-cell line 165-E3C, 1 μg/mL, Day 46, after 3 days
  Mean, ATP proliferation assay: 364 RLU
[1]; T-cell line 165-E3C, 3 μg/mL antigen, No Antigen 2797
  Reactivity (proliferation), Mean: 14394 RLU
[1]; T-cell line 165-E3C, 3 μg/mL, Day 46, after 3 days
  Mean, ATP proliferation assay: 23785 RLU
[1]; T-cell line 165-E3C, 10 μg/mL antigen, No Antigen 2797
  Reactivity (proliferation), Mean: 39495 RLU
[1]; T-cell line 165-E3C, 10 μg/mL, Day 46, after 3 days
  Mean, ATP proliferation assay: 51822 RLU
[1]; T-cell line 165-E3C, 100 μg/mL antigen, No Antigen 2797
  Reactivity (proliferation), Mean: 20538 RLU
[1]; T-cell line 165-E3C, Day 32, 10 μg/mL
  Mean, ATP proliferation assay: 3778 RLU
[1]; T-cell line 165-F3C, 1 μg/mL antigen, No Antigen 3150
  Reactivity (proliferation), Mean: 7777 RLU
[1]; T-cell line 165-F3C, 1 μg/mL antigen
  Proliferation (luminescent ATP assay), Mean: 5027
[1]; T-cell line 165-F3C, 3 μg/mL antigen, No Antigen 3150
  Reactivity (proliferation), Mean: 36331 RLU
[1]; T-cell line 165-F3C, 3 μg/mL antigen
  Proliferation (luminescent ATP assay), Mean: 32906
[1]; T-cell line 165-F3C, 3 μg/mL, Day 46, after 3 days
  Mean, ATP proliferation assay: 75407 RLU
[1]; T-cell line 165-F3C, 10 μg/mL antigen, No Antigen 3150
  Reactivity (proliferation), Mean: 44047 RLU
[1]; T-cell line 165-F3C, 10 μg/mL antigen
  Proliferation (luminescent ATP assay), Mean: 62888
[1]; T-cell line 165-F3C, 10 μg/mL, Day 46, after 3 days
  Mean, ATP proliferation assay: 85442 RLU
[1]; T-cell line 165-F3C, 100 μg/mL antigen, No Antigen 3150
  Reactivity (proliferation), Mean: 9932 RLU
[1]; T-cell line 165-F3C, Day 32, 10 μg/mL
  Mean, ATP proliferation assay: 1141 RLU
[1]; T-cell line 165-F6C, 1 μg/mL antigen, No Antigen 2189
  Reactivity (proliferation), Mean: 13418 RLU
[1]; T-cell line 165-F6C, 3 μg/mL antigen, No Antigen 2189
  Reactivity (proliferation), Mean: 38973 RLU
[1]; T-cell line 165-F6C, 3 μg/mL, Day 46, after 3 days
  Mean, ATP proliferation assay: 31382 RLU
[1]; T-cell line 165-F6C, 10 μg/mL antigen, No Antigen 2189
  Reactivity (proliferation), Mean: 39560 RLU
[1]; T-cell line 165-F6C, 10 μg/mL, Day 46, after 3 days
  Mean, ATP proliferation assay: 34071 RLU
[1]; T-cell line 165-F6C, 100 μg/mL antigen, No Antigen 2189
  Reactivity (proliferation), Mean: 4332 RLU
[1]; T-cell line 165-F6C, Day 32, 10 μg/mL
  Mean, ATP proliferation assay: 1484 RLU
[1]; all seven Donor 3 COP T-cell lines tested, Day 54
  response in proliferation assay: responded well
[1]; six Donor 3 COP lines, Day 32, 10 μg/mL (Table 23)
  reactivity in confirmatory ATP proliferation assay: showed reactivity
[2]; 1 μg/mL, 0 μg/mL 3382
  luminescent ATP proliferation assay, Mean RLU: 13131 RLU
[2]; 10 μg/mL, 0 μg/mL 3382
  luminescent ATP proliferation assay, Mean RLU: 175652 RLU
[2]; 30 μg/mL, 0 μg/mL 3382
  luminescent ATP proliferation assay, Mean RLU: 190750 RLU
[2]; Day 50, 1 μg/mL
  Mean, ATP proliferation assay: 47254
[2]; Day 50, 3 μg/mL
  Mean, ATP proliferation assay: 169021
[2]; Day 50, 10 μg/mL
  Mean, ATP proliferation assay: 213196
[2]; Day 58, 3 μg/mL
  Mean, ATP proliferation assay: 21031
[2]; Day 58, 10 μg/mL
  Mean, ATP proliferation assay: 31423
[2]; Day 58, 30 μg/mL
  Mean, ATP proliferation assay: 31323
[2]; Day 58, 100 μg/mL
  Mean, ATP proliferation assay: 31188
[2]; 1 μg/mL COP
  Mean RLU: 12243 RLU
[2]; 10 μg/mL COP
  Mean RLU: 147464 RLU
[2]; 30 μg/mL COP
  Mean RLU: 112673 RLU
[2]; T-cell line 205-1B4, 1 μg/mL antigen, No Antigen 830
  Reactivity (proliferation), Mean: 1522 RLU
[2]; T-cell line 205-1B4, 3 μg/mL antigen, No Antigen 830
  Reactivity (proliferation), Mean: 5501 RLU
[2]; T-cell line 205-1B4, 10 μg/mL antigen, No Antigen 830
  Reactivity (proliferation), Mean: 11273 RLU
[2]; T-cell line 205-1B4, Day 13, 10 μg/mL
  COP 10 μg/mL, ATP proliferation assay: 84937 RLU
[2]; T-cell line 205-1B7, Day 13, 10 μg/mL
  COP 10 μg/mL, ATP proliferation assay: 74147 RLU
[2]; T-cell line 205-1C4, 1 μg/mL antigen, No Antigen 4464
  Reactivity (proliferation), Mean: 8859 RLU
[2]; T-cell line 205-1C4, 3 μg/mL antigen, No Antigen 4464
  Reactivity (proliferation), Mean: 26612 RLU
[2]; T-cell line 205-1C4, 10 μg/mL antigen, No Antigen 4464
  Reactivity (proliferation), Mean: 41287 RLU
[2]; T-cell line 205-1C4, Day 13, 10 μg/mL
  COP 10 μg/mL, ATP proliferation assay: 69861 RLU
[2]; T-cell line 205-1D1, Day 13, 10 μg/mL
  COP 10 μg/mL, ATP proliferation assay: 63419 RLU
[2]; T-cell line 205-1E1, Day 13, 10 μg/mL
  COP 10 μg/mL, ATP proliferation assay: 44198 RLU
[2]; T-cell line 205-1F2, Day 13, 10 μg/mL
  COP 10 μg/mL, ATP proliferation assay: 71947 RLU
[2]; T-cell line 205-1F4, Day 13, 10 μg/mL
  COP 10 μg/mL, ATP proliferation assay: 33143 RLU
[2]; T-cell line 205-1F4, Day 71, 1 μg/mL antigen, autologous B-LCL
  Proliferation (luminescent ATP assay), Mean: 47254
[2]; T-cell line 205-1F4, Day 71, 3 μg/mL antigen, autologous B-LCL
  Proliferation (luminescent ATP assay), Mean: 169021
[2]; T-cell line 205-1F4, Day 71, 10 μg/mL antigen, autologous B-LCL
  Proliferation (luminescent ATP assay), Mean: 213196
[2]; T-cell line 205-1G3, Day 13, 10 μg/mL
  COP 10 μg/mL, ATP proliferation assay: 54211 RLU
[2]; T-cell line 205-1H1, Day 13, 10 μg/mL
  COP 10 μg/mL, ATP proliferation assay: 29824 RLU
[2]; T-cell line 205-1H3, 1 μg/mL antigen, 0 μg/mL 4121.0
  Reactivity (proliferation), Mean: 32122.0
[2]; T-cell line 205-1H3, 3 μg/mL antigen, 0 μg/mL 4121.0
  Reactivity (proliferation), Mean: 49585.0
[2]; T-cell line 205-1H3, 10 μg/mL antigen, 0 μg/mL 4121.0
  Reactivity (proliferation), Mean: 60878.3
[2]; T-cell line 205-1H3, Day 13, 10 μg/mL
  COP 10 μg/mL, ATP proliferation assay: 55518 RLU
[2]; T-cell line 205-1H4, Day 13, 10 μg/mL
  COP 10 μg/mL, ATP proliferation assay: 50307 RLU
[2]; T-cell line 205-1H5, 1 μg/mL antigen, No Antigen 749
  Reactivity (proliferation), Mean: 2375 RLU
[2]; T-cell line 205-1H5, 3 μg/mL antigen, No Antigen 749
  Reactivity (proliferation), Mean: 7182 RLU
[2]; T-cell line 205-1H5, 10 μg/mL antigen, No Antigen 749
  Reactivity (proliferation), Mean: 8580 RLU
[2]; T-cell line 205-1H5, Day 13, 10 μg/mL
  COP 10 μg/mL, ATP proliferation assay: 57608 RLU
[2]; T-cell line 205-1H7, 1μg/mL antigen, after seven stimulations, 0 μg/mL 3382
  Proliferation (luminescent ATP assay), Mean: 13131 RLU
[2]; T-cell line 205-1H7, 10 μg/mL antigen, after seven stimulations, 0 μg/mL 3382
  Proliferation (luminescent ATP assay), Mean: 175652 RLU
[2]; T-cell line 205-1H7, 30 μg/mL antigen, after seven stimulations, 0 μg/mL 3382
  Proliferation (luminescent ATP assay), Mean: 190750 RLU
[2]; T-cell line 205-1H7, Day 13, 10 μg/mL
  COP 10 μg/mL, ATP proliferation assay: 64436 RLU
[2]; T-cell line 205-1H9, Day 13, 10 μg/mL
  COP 10 μg/mL, ATP proliferation assay: 52972 RLU
[2]; T-cell line 205-1H11, 1 μg/mL antigen, 0 μg/mL 6941
  Reactivity (proliferation), Mean: 12243 RLU
[2]; T-cell line 205-1H11, 10 μg/mL antigen, 0 μg/mL 6941
  Reactivity (proliferation), Mean: 147464 RLU
[2]; T-cell line 205-1H11, 30 μg/mL antigen, 0 μg/mL 6941
  Reactivity (proliferation), Mean: 112673 RLU
[2]; T-cell line 205-1H11, Day 13, 10 μg/mL
  COP 10 μg/mL, ATP proliferation assay: 54232 RLU
[2]; fifteen Donor 4 wells, Day 13, 10 μg/mL (Table 26)
  ATP ratio (COP stimulated:unstimulated control): two or greater
